Test system: neutrophil migration across HUVEC
Test: Neutrophil transendothelial migration (TEM) restoration studies with PKC inhibitors in HUVEC
Format: cell-based, human
Conditions: for restoration of PMN TEM in response to LTB4 after PKC activator treatment: PKC inhibitor 30 min (1, 10, 100 nM) then 100 nM Bryostatin-1 1 h
Protocol: HUVEC were pretreated with G0-6983, a PKC inhibitor with dose dependent specificities for classical vs. novel PKC isoforms for 30 minutes prior to addition of Bryostatin-1 (100 nM) to block neutrophil migration. […] Neutrophil migration towards 100 nM LTB4 was initiated by adding LTB4 to the lower well.
Neutrophil Transendothelial Migration (TEM) Restoration Studies: HUVECs were pretreated with Go-6983 (1, 10, 100 nM), or Go-6976 (1, 10,100 nM) for 30 minutes, then spiked with 100 nM Bryostatin-1 for 1 hour. HUVECs previously nucleofected with PKC-δ, -ε, or control siRNA were just treated in Bryostatin-1 for 1 hour. HUVECs were washed three times and placed in a new plate containing either 500 IL 100 nM LTB4, or HBSS alone for control. Neutrophils were allowed to migrate for 3 h at 37° C. Migration was stopped by removing the inserts and migration was measured using the MPO assay.
Myeloperoxidase Assay: Neutrophil migration was measured using myeloperoxidase (MPO) analysis. Cell culture inserts were first removed, and plates were spun at 1,500 RPM for 5 min. The supernatant was removed, and MPO activity was measured using TMB/peroxide as chromogen. The reaction was stopped with sulfuric acid and absorbance was read at 450 nm using a microplate reader. All experiments were performed n=6. Data was expressed as “% neutrophil migration”, which allowed cumulative statistical analysis to be done and account for unpreventable batch-to-batch variations.

SMILES	restoration of PMN TEM in response to LTB4 after PKC activator treatment	effect of inhibitor pretreatment on Bryostatin-1 mediated reduction in migration towards LTB4, 1 nM (1 nM inhibitor 30 min before 100 nM Bryostatin-1)	effect of inhibitor pretreatment on Bryostatin-1 mediated reduction in migration towards LTB4, 10 or 100 nM (10 or 100 nM inhibitor 30 min before 100 nM Bryostatin-1)	restoration of PMN TEM in response to LTB4 after PKC activator treatment (listed as G0-6983)
Cn1c2ccccc2c2c3c(c4c5ccccc5n(CCC#N)c4c21)CNC3=O [GO-6976]	did not restore PMN TEM	–	–	–
COc1ccc2c(c1)c(C1=C(c3c[nH]c4ccccc34)C(=O)NC1=O)cn2CCCN(C)C [Go-6983]	dose dependently restored neutrophil migration	but not by 1 nM G06983	prevented	dose dependently reversed
CN(C)CCCn1cc(C2=C(c3c[nH]c4ccccc34)C(=O)NC2=O)c2ccccc21 [GF10923X]	did not restore PMN TEM	–	–	–
CC(=O)c1c(O)c(C)c(O)c(Cc2c(O)c3c(c(C(=O)/C=C/c4ccccc4)c2O)OC(C)(C)C=C3)c1O [Rottlerin]	did not restore PMN TEM	–	–	–
CN[C@@H]1C[C@H]2O[C@@](C)([C@@H]1OC)n1c3ccccc3c3c4c(c5c6ccccc6n2c5c31)C(=O)NC4 [staurosporine]	did not restore PMN TEM	–	–	–

Reference: patent publication US20230139328A1, “DOSAGE FORMS FOR IMPROVING ORGAN TRANSPLANTATION, GRAFT VERSUS HOST DISEASE AND STEM CELLS TRANSPLANTS” (Aphios Corporation, priority 2020, published 2023)
